A short description of series [1]: Metabolic stability in rat liver microsomes. The conditions noted are these: Sprague-Dawley, pH 7.4, rat liver microsomes 0.5 mg/mL, compound 1 μM, NADPH, 37° C. The format is in vitro ADME, SD rat. The procedure: (§1) Experiments in microsomes: Human liver microsomes: 0.5 mg/mL, Xenotech; Rat liver microsomes: 0.5 mg/mL, Xenotech; Coenzyme (NADPH/NADH): 1 mM, Sigma Life Science; Magnesium chloride: 5 mM, 100 mM phosphate buffer (pH 7.4).
(§2) Preparation of stock solution: Powder of the example compound 1-7 was accurately weighed and dissolved in DMSO to 5 mM. Preparation of phosphate buffer (100 mM, pH7.4): A pre-formulated 0.5M potassium dihydrogen phosphate (150 mL) was mixed with 0.5M dibasic potassium phosphate (700 mL). The pH of the mixture was adjusted to 7.4 with 0.5M dibasic potassium phosphate solution. The mixture was diluted 5-fold with ultrapure water before use, and magnesium chloride was added to obtain a phosphate buffer (100 mM) containing 100 mM potassium phosphate, 3.3 mM magnesium chloride, pH 7.4. A NADPH regeneration system solution (containing 6.5 mM NADP, 16.5 mM G-6-P, 3 U/mL G-6-PD, 3.3 mM magnesium chloride) was prepared and placed on wet ice prior to use. Preparation of stop solution: acetonitrile solution containing 50 ng/mL propranolol hydrochloride and 200 ng/mL tolbutamide (internal standard). 25057.5 μL of phosphate buffer (pH 7.4) was taken into a 50 mL centrifuge tube, to which 812.5 μL human liver microsomes were added, and mixed to obtain a liver microsome dilution solution with a protein concentration of 0.625 mg/mL. 25057.5 μL of phosphate buffer (pH 7.4) was taken into a 50 mL centrifuge tube, to which 812.5 μL SD rat liver microsomes were added, and mixed to obtain a liver microsome dilution solution with a protein concentration of 0.625 mg/mL.
(§3) Incubation of the samples: The stock solution of the respective compound was respectively diluted to 0.25 mM with an aqueous solution containing 70% acetonitrile, and used as a working solution, ready for use. 398 μL of the dilution solution of human liver microsomes or rat liver microsome were added to a 96-well incubation plate (N=2), respectively, and 2 μL of 0.25 mM working solution was added and mixed.
(§4) Metabolic stability assay: 300 μL of pre-chilled stop solution was added to each well of a 96-well deep well plate and placed on ice as a stop plate. The 96 well incubation plate and NADPH regeneration system were placed in a 37° C. water bath box, shaken at 100 rpm and pre-incubated for 5 min. 80 μL of incubation solution was taken out from each well of the incubation plate and added to the stop plate, mixed, and replenished with 20 μL of NADPH regeneration system solution as a 0-min sample. 80 μL of NADPH regeneration system solution was added to each well of the incubation plate to start the reaction and start counting. […] Separately, 100 μL of the reaction solution was taken at 10, 30, and 90 min reaction, respectively, added to a stop plate, and vortexed for 3 minutes to terminate the reaction. The stop plate was centrifuged at 5000×g at 4° C. for 4 min. 100 μL of the supernatant was added to a 96-well plate to which 100 μL of distilled water was previously added, mixed, and analyzed by LC-MS/MS.
(§5) Data analysis: The peak areas of the corresponding compound and internal standard were detected by LC-MS/MS system, and the ratio of the peak area of the compound to the internal standard was calculated. The slope was measured by plotting the natural logarithm of the percent of compound remaining versus time, and t1/2 and CLint were calculated according to the formula, where V/M is equal to 1/protein concentration.

Series [2] in a line: Pharmacokinetic evaluation in rats. The format is in vivo, Sprague-Dawley rats. The conditions noted are these: rat; for AUC(0-inf) / AUC(0-t) / Tmax / MRT inf / Cmax: plasma; for MRT inf: read-out: MRTINF_pred. As for the experimental part: 6 male Sprague-Dawley rats (7-8 weeks old, and weighing approximately 210 g) were divided into 2 groups with 3 rats in each group. The rats were intravenously or orally administered a single dose of compound (3 mg/kg intravenously, 10 mg/kg orally) to compare pharmacokinetic differences.
The rats were raised on standard food and water. Fasting was started 16 hours before the test. The drug was dissolved with PEG400 and dimethyl sulfoxide. The blood samples were collected from eyelids at the time points of 0.083 hours, 0.25 hours, 0.5 hours, 1 hour, 2 hours, 4 hours, 6 hours, 8 hours, 12 hours, and 24 hours after administration.
Rats were briefly anesthetized after inhalation of diethyl ether and 300 μL of blood sample was collected from the eyelids into test tubes. There was 30 μL of 1% heparin salt solution in the test tube. Tubes were dried at 60° C. overnight before use. After the blood sample was collected at a later time point, the rats were sacrificed after ether anesthesia.
Immediately after the collection of the blood sample, the test tube was gently inverted at least 5 times to ensure sufficient mixing and then placed on ice. The blood sample was centrifuged at 5000 rpm at 4° C. for 5 minutes to separate the plasma from the red blood cells. 100 μL of plasma was aspirated into a clean plastic centrifuge tube with a pipette, marking with the name of the compound and time point. Plasma was stored at −80° C. prior to analysis. The concentration of the compound of the present disclosure in plasma was determined by LC-MS/MS. The pharmacokinetic parameters were calculated based on the blood concentration of each animal at different time points.

Series [3] is described as follows: Metabolic stability in human liver microsomes. The format is in vitro ADME. The conditions noted are these: pH 7.4, human liver microsomes 0.5 mg/mL, compound 1 μM, NADPH, 37° C. The procedure:
as §1, §2, §3, §4, §5

Where [4] appears, read: male, Sprague-Dawley, IV, 3 mg/kg single dose.
The mark [5] stands for this setting: male, Sprague-Dawley, PO, 10 mg/kg single dose.

Like-named read-outs stand apart in the source and are kept apart here.

As for `Cc1nc(C(=O)NCC(=O)O)c(O)c2ccc(Oc3ccccc3)cc12` [FG-4592, reference compound], the microsomal CLint at 1 μM in series [1] and in series [3] was under 8.6 µL/min/mg each time. The half-life at 1 μM in series [1] (read-out: t1/2 in rat liver microsomes) and in series [3] (read-out: t1/2 in human liver microsomes) was over 2.42 h in each case. The AUC(0-inf) amounted to 63.8 µg·h/mL in series [2] (setting [4]) and 196 µg·h/mL in series [2] (setting [5]). The AUC(0-t) was 63.8 µg·h/mL in series [2] (setting [4]) and 196 µg·h/mL in series [2] (setting [5]). In addition, the figures for the Tmax in series [2] (setting [4]) and in series [2] (setting [5]) were 0.08 h and 2.83 h, respectively. Further, the MRT inf in series [2] (setting [4]) was 2.82 h; in series [2] (setting [5]), 5.03 h. In series [2] (male, Sprague-Dawley, in vivo), the F was 92.21%. For the same compound, the half-life is 2.08 h in series [2] (male, Sprague-Dawley, in vivo, iv, 3 mg/kg) and 2.78 h in series [2] (male, Sprague-Dawley, in vivo, po, 10 mg/kg). In addition, the Cmax in series [2] (setting [4]) was found to be 21100 ng/mL; in series [2] (setting [5]), 22100 ng/mL. The Vz_pred is on record as 0.15 L/kg in series [2] (IV, 3 mg/kg single dose) and 0.20 L/kg in series [2] (PO, 10 mg/kg single dose).

Values taken from patent publication US10851062B2, “Substituted heteroaryl compound, composition containing same, and application thereof” (Shenzhen TargetRx, Inc., priority 2016, dated 2020).
